Test results from PubChem BioAssay (NCI).
Values joined by “and” are separate entries in the source; they are usually repeats but may differ in a detail not shown here. Equal values may be shown once.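 A five-concentration, 48-hour dose response in 96-well plates underlies each endpoint, interpolated linearly between surrounding concentrations. At the GI50, growth is halved. TGI marks complete inhibition of growth.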

Assays:
Test in all cases: NCI-60 cell line screen, 48 h
NCI-H460 lung = system: NCI-H460 lung
EKVX NSCLC = system: EKVX NSCLC
OVCAR-4 ovarian = system: OVCAR-4 ovarian
HOP-62 NSCLC = system: HOP-62 NSCLC
SK-MEL-5 melanoma = system: SK-MEL-5 melanoma
HL-60(TB) leukemia = system: HL-60(TB) leukemia
SNB-75 CNS = system: SNB-75 CNS
PC-3 prostate = system: PC-3 prostate
K-562 leukemia = system: K-562 leukemia
HS 578T breast = system: HS 578T breast

| SMILES | TGI (NCI-H460 lung) | TGI (EKVX NSCLC) | TGI (OVCAR-4 ovarian) | TGI (HOP-62 NSCLC) | TGI (SK-MEL-5 melanoma) | TGI (HL-60(TB) leukemia) | TGI (SNB-75 CNS) | TGI (PC-3 prostate) | GI50 (NCI-H460 lung) | GI50 (EKVX NSCLC) | GI50 (OVCAR-4 ovarian) | GI50 (K-562 leukemia) | TGI (K-562 leukemia) | GI50 (HOP-62 NSCLC) | GI50 (SK-MEL-5 melanoma) | GI50 (HL-60(TB) leukemia) | GI50 (SNB-75 CNS) | GI50 (HS 578T breast) | TGI (HS 578T breast) | GI50 (PC-3 prostate) |
| --- | --- | --- | --- | --- | --- | --- | --- | --- | --- | --- | --- | --- | --- | --- | --- | --- | --- | --- | --- | --- |
| O=c1oc2ccccc2c(O)c1C=NC(=S)c1ccncc1 | > 100 µM | > 100 µM | > 100 µM | > 100 µM | > 100 µM | 35.5 µM | > 100 µM | > 100 µM | – | – | – | – | – | – | – | – | – | – | – | – |
| CC(C)N(C(C)C)[PH+]1O[PH+](N(C(C)C)C(C)C)O[PH+](N(C(C)C)C(C)C)O[PH+](N(C(C)C)C(C)C)O[PH+](N(C(C)C)C(C)C)O1.[C-]#[O+].[C-]#[O+].[C-]#[O+].[C-]#[O+].[C-]#[O+].[C-]#[O+].[C-]#[O+].[Cr].[Cr] (centres undefined) | > 100 µM | > 100 µM | > 100 µM | > 100 µM | > 100 µM | > 100 µM | > 100 µM | – | > 100 µM | > 100 µM | > 100 µM | > 100 µM | > 100 µM | > 100 µM | > 100 µM | > 100 µM | 75.4 µM | – | – | – |
| COc1ccc(-c2cc(-c3ccc(Cl)cc3)c(C#N)c(=O)n2CCCCC(=O)Nc2ccccc2N)cc1 | 56.6 µM | 91.3 µM | > 100 µM | > 100 µM | 4.48 µM | 5.7 µM | – | 95.9 µM | 4.26 µM | 3.25 µM | 10.5 µM | 4.18 µM | > 100 µM | 12.7 µM | 2.05 µM | 2.08 µM | – | 8.18 µM | 52.4 µM | 6.18 µM |
| COc1ccc(-n2nnc3c(sc4ccccc43)c2=O)cc1 | – | – | – | – | > 100 µM | > 100 µM | – | > 100 µM | – | – | – | > 100 µM | > 100 µM | – | > 100 µM | > 100 µM | – | – | – | > 100 µM |
| Cc1c(C)c2cc3c(=O)ccoc3c(C)c2oc1=O | > 100 µM | > 100 µM | – | > 100 µM | > 100 µM | > 100 µM | 85.2 µM | – | – | – | – | – | > 100 µM | – | – | – | – | – | – | – |
| O=C(CCc1nc(=S)[nH][nH]1)NC12CC3CC(CC(C3)C1)C2 | > 100 µM | > 100 µM | > 100 µM | > 100 µM | > 100 µM | > 100 µM | > 100 µM | – | – | – | – | – | > 100 µM | – | – | – | – | – | – | – |
| CC(C)N(C(=O)C12C3C4C1C1C2C3C41C(O)C(C)(C)C)C(C)C (centres undefined) | – | > 50 µM | – | > 50 µM | > 50 µM | > 50 µM | > 50 µM | – | – | – | – | – | > 50 µM | – | – | – | – | – | – | – |
| CC(C)c1cccc(C(C)C)c1NC(=O)C(=O)C(C(=O)c1ccccc1-c1ccccc1)C1OC(=O)c2ccccc21 (centres undefined) | 36.5 µM | – | 45.9 µM | – | 29.5 µM | – | – | – | – | – | – | – | 68.3 µM | – | – | – | – | – | – | – |
| COc1ccc(C2C(Cl)C(=O)N2n2cnc3ccccc3c2=O)cc1OC (centres undefined) | > 100 µM | > 100 µM | > 100 µM | > 100 µM | > 100 µM | > 100 µM | 84.7 µM | – | – | – | – | – | > 100 µM | – | – | – | – | – | – | – |
| Clc1ccc([O][In]([O]c2ccc(Cl)cn2)[O]c2ccc(Cl)cn2)nc1 | > 100 µM | > 100 µM | > 100 µM | – | 76.8 µM | – | > 100 µM | – | > 100 µM | > 100 µM | > 100 µM | – | – | – | 15.8 µM | – | > 100 µM | – | – | – |
| COc1cc2cc(Oc3ccc(NC(=O)c4cccc(C(F)(F)F)c4)cc3)c(C)nc2cc1OC | > 100 µM | > 100 µM | > 100 µM | > 100 µM | 8.84 µM | > 100 µM | – | > 100 µM | 4.07 µM | 4.39 µM | 3.68 µM | 4.25 µM | > 100 µM | 21.6 µM | 2.45 µM | 3.84 µM | – | 2.97 µM | 58.4 µM | 2.85 µM |
| CSc1ccc(/C=C2\CNC/C(=C\c3ccc(SC)cc3)C2=O)cc1 | > 371 µM and 150 µg/mL | > 371 µM and 150 µg/mL | > 371 µM and 28.7 µg/mL | 59.3 µM and 131 µg/mL | > 371 µM and 150 µg/mL | 362 µM and 99.8 µg/mL | 86.4 µM and 47.5 µM and 27.9 µg/mL | – | 114 µg/mL | 150 µg/mL | > 371 µM and 18.7 µg/mL | 150 µg/mL | > 371 µM and 150 µg/mL | 14 µM and 50.2 µg/mL | 150 µg/mL | 15.2 µg/mL | 23.2 µM and 7.91 µg/mL | – | > 371 µM | – |
| COC(=O)c1nc(NN)[nH]c(=O)c1CCCCCc1c(C(=O)OC)[nH]c(NN)cc1=O | > 100 µM | > 100 µM | > 100 µM | > 100 µM | > 100 µM | > 100 µM | > 100 µM | – | – | – | – | – | > 100 µM | – | – | – | – | – | – | – |
| C=C(C)C1CC2C(C)=C(OC(C)=O)C1n1c(=O)c3cc4ccccc4cc3c(=O)n12 (centres undefined) | > 100 µM | > 100 µM | > 100 µM | > 100 µM | > 100 µM | > 36 µM | > 85.5 µM | – | – | – | – | – | > 100 µM | – | – | – | – | – | – | – |
| O=C1c2ccccc2N2OC3(N4CCCC4)CCCC3C12c1ccccc1 (centres undefined) | – | > 100 µM | > 100 µM | > 100 µM | > 100 µM | > 100 µM | > 100 µM | – | – | – | – | – | > 100 µM | – | – | – | – | – | – | – |
| COc1ccc(OC)c(-c2cc(-c3ccccc3)nn2-c2ccc(S(=O)(=O)NC(C)=O)cc2)c1 | > 100 µM | 41.8 µM | – | – | 26.8 µM | > 100 µM | – | 20.6 µM | 13.2 µM | 22.8 µM | – | 3.36 µM | 9.76 µM | – | 11.8 µM | 28 µM | – | 27.4 µM | 80 µM | 6.08 µM |
| CC(C)(C)OC(=O)NCC(C#N)CNC(=O)OC(C)(C)C | > 100 µM | > 100 µM | > 100 µM | > 100 µM | > 100 µM | > 100 µM | – | > 100 µM | – | – | – | – | > 100 µM | – | – | – | – | – | > 100 µM | – |
| CN1C2CC(C#N)C1C=CC2=O (centres undefined) | 32.4 µM and > 100 µM | 28 µM and > 100 µM | – | 85.1 µM and > 100 µM | > 100 µM | 53.4 µM and > 100 µM | – | 92.1 µM and > 100 µM | 15.8 µM and 73.2 µM | 14.7 µM and 62.1 µM | – | 14 µM and 78.1 µM | 90.2 µM and > 100 µM | 27.6 µM and > 100 µM | > 100 µM | – | – | 35.4 µM and > 100 µM | > 100 µM | 26.3 µM and > 100 µM |
